This is an account of results in publication PMC5460289, “Identification of New Shikonin Derivatives as Antitumor Agents Targeting STAT3 SH2 Domain” (Scientific Reports, 2017).

Common to all, as to type: cell-based, human
In one assay the test system is BT-474. The experiment in a line: MTT anti-proliferation assay. Conditions: Homo sapiens, BT-474, 24 h treatment. On the procedure: (§1) Initial experiments were performed for evaluation of growth inhibition by the new compounds against six human breast cancer cell lines, including MCF-7 (ER+/PR+, HER-2-), BT474 (ER+/PR+, HER-2+), SKBR-3 (ER-/PR-/HER-2+), MDA-MB-436 (ER-/PR-/HER-2-), MDA-MB-231 (ER-/PR-/HER-2-), MDA-MB-468 (ER-/PR-/HER-2-) and non-tumorigenic MCF-10A cells. After 24 h treatment by the obtained compounds, the inhibition was assessed and the IC50 was summarized. […] Subsequently, the inhibition of STAT3 activation by PMM-172 and Stattic was evaluated using a dual-luciferase assay.
(§2) The anti-proliferative activities of the prepared compounds against MCF-7 (ER+/PR+, HER-2-), BT474 (ER+/PR+, HER-2+), SKBR-3 (ER-/PR-/HER-2+), MDA-MB-436 (ER-/PR-/HER-2-), MDA-MB-231 (ER-/PR-/HER-2-), MDA-MB-468 (ER-/PR-/HER-2-) and non-tumorigenic MCF-10A cell lines were evaluated using a standard (MTT)-based colorimetric assay with some modification. Cell lines were grown to log phase in DMEM supplemented with 10% fetal bovine serum. Cell suspensions were prepared and 100 μL/well dispensed into 96-well plates giving 10^4 cells/well. The subsequent incubation was permitted at 37 °C, 5% CO2 atmosphere for 24 h to allow the cells to reattach. Subsequently, cells were treated with the target compounds at increasing concentrations in the presence of 10% FBS for 24 h. Then, cell viability was assessed by the conventional 3-(4, 5-dimethylthiazol-2-yl)-2, 5-diphenyltetrazolium bromide (MTT) reduction assay and carried out strictly according to the manufacturer instructions. The absorbance (OD570) was read on an ELISA reader (Tecan, Austria). In all experiments, three replicate wells were used for each drug concentration. Each assay was carried out for at least three times.
On the technique in general: Formazan colour is commonly taken as a measure of viable cells.

Another assay has as its system MCF-7. The assay can be described thus: MTT anti-proliferation assay. To be noted: Homo sapiens, MCF7, 24 h treatment. On the procedure:
as §1, §2

In the next assay the test system is MDA-MB-231. The assay can be described thus: MTT anti-proliferation assay. Conditions: Homo sapiens, MDA-MB-231, 24 h treatment. The method, then: as §1, §2
The next assay deals with MDA-MB-436. The experiment in a line: MTT anti-proliferation assay. To be noted: Homo sapiens, MDA-MB-436, 24 h treatment. On the procedure: as §1, §2
The test system of another assay is MDA-MB-468. The experiment in a line: MTT anti-proliferation assay. Conditions: Homo sapiens, MDA-MB-468, 24 h treatment. On the procedure: as §1, §2
The next assay concerns SKBR-3. The assay can be described thus: MTT anti-proliferation assay. Conditions: Homo sapiens, SK-BR-3, 24 h treatment. On the procedure: as §1, §2
Assay [1] concerns IL-6-induced STAT3 phosphorylation in MDA-MB-231 cells. The assay can be described thus: IL-6 induction of STAT3 phosphorylation (Western blot). Conditions: 2 μM pretreatment 24 h, IL-6 (20 ng/mL) 30 min. On the procedure:
(§3) Figure 6 (A) PMM-172 suppressed constitutive pSTAT3 (Tyr705) in a dose-dependent manner. (B) PMM-172 suppressed constitutive pSTAT3 (Tyr705) in a time-dependent manner. (C) MDA-MB-231 cells were treated with IL-6 (20 ng/mL) or vehicle for 30 min, with or without pretreatment with PMM-172 (2 μM) for 24 h. PMM-172 inhibited IL-6 induced phosphorylation of STAT3. (D) Stattic suppressed constitutive pSTAT3 (Tyr705) in a dose-dependent manner. (E) Stattic suppressed constitutive pSTAT3 (Tyr705) in a time-dependent manner. (F) Tyrosine phosphorylation of two STAT family proteins STAT1 and STAT5 were detected with specific antibodies. […] Data were shown as mean ± SD of three independent experiments. *P < 0.05, **P < 0.01. Cropped blots/gels were used in the figure and the gels had been run under the same experimental conditions; the full-length blots/gels are presented in Supplementary Figure S2.
We further investigated whether PMM-172 could inhibit IL-6-induced STAT3 phosphorylation in MDA-MB-231 cells.
Cells were seeded in 10 cm plates and allowed to adhere overnight. The following day, the specimen was serum starved for 24 h. The specimen was then treated with or without tested agents at the dose of 2 μM. […] Cells were then harvested after 30 min and analyzed by Western blot.
On the technique in general: In western blotting, separated proteins are transferred to a membrane and probed.

A further assay relates to STAT1. The experiment in a line: Western blot of STAT1 phosphorylation and expression. To be noted: MDA-MB-231. The method, then: as §3
Subsequently, we evaluated the phosphorylation level of other STAT family proteins including STAT1 and STAT5.
Cells were rinsed twice with cold PBS and then lysed with RIPA buffer containing a protease inhibitor mixture at 1:100 dilution on ice for 30 min. Insoluble components of cell lysates were removed by centrifugation (4 °C, 12000 rmp, 10 min), and protein concentrations were measured using a Pierce BCA protein assay kit. […]

Usually IC50 stands for the concentration needed to halve the response being measured. Low values mean inhibition by little substance, high ones a need for much substance. For `COc1cc(OC)cc(-c2nnc(SCC(=O)O[C@H](CC=C(C)C)C3=CC(=O)c4c(O)ccc(O)c4C3=O)o2)c1` [PMM-172, (R)-1-(5,8-dihydroxy-1,4-dioxo-1,4-dihydronaphthalen-2-yl)-4-methylpent-3-en-1-yl 2-((5-(3,5-dimethoxyphenyl)-1,3,4-oxadiazol-2-yl)thio)acetate], the IC50 in the assay on BT-474 was found to be 5.26 ± 0.66 µM; in the assay with MCF-7, 4.87 ± 0.55 µM; in the assay with MDA-MB-231, 1.98 ± 0.49 µM; in the assay on MDA-MB-436, 3.07 ± 0.47 µM; in the assay with MDA-MB-468, 3.24 ± 0.27 µM; in the assay with SKBR-3 it was 3.14 ± 0.46 µM. Moreover, the “IL-6-induced STAT3 phosphorylation” value in assay [1] was “suppressed IL-6-induced STAT3 phosphorylation”. For the same compound, in the assay on STAT1, the “phosphorylation and expression of STAT1” value is on record as “inhibited neither the phosphorylation nor expression”.
